In ChEMBL document CHEMBL5303762, “Data for DCP probe BI-8668” (2023) one finds residual activity and inhibition data, which are given here for two molecules.

In assay [1] the target is Prostaglandin G/H synthase 1 (Homo sapiens) (UniProt P23219). In words: COX-1 Eurofins SafetyScreen44 (BI). Particulars: Compound concentration 10.0 uM.
Assay [2] concerns the target Amiloride-sensitive sodium channel, ENaC (Mus musculus) (UniProt Q61180+Q9WU38+Q9WU39). In words: Inhibition of M-1 water resorption. Conditions: M1, concentration not given here. The assay is classed as functional, cell-based.
In assay [3] the target is T1, Alpha-1A adrenergic receptor (Homo sapiens) (UniProt P35348).
T1 sequence (whole entry): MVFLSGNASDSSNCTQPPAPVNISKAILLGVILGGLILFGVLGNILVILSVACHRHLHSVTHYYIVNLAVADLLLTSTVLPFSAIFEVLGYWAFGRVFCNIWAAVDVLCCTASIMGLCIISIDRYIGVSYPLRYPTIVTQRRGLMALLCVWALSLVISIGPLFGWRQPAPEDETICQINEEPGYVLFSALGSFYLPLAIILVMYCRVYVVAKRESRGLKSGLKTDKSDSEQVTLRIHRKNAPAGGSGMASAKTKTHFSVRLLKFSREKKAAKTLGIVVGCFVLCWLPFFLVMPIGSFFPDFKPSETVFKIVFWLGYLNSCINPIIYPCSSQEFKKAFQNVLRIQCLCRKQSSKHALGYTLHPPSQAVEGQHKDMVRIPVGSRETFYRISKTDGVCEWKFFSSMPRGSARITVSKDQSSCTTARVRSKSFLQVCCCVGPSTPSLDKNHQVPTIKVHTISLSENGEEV
In words: ALPHA1A(H)ANTAG Eurofins SafetyScreen44 (BI). Particulars: filed as antagonist, Compound concentration 10.0 uM.

Assay [4] has as its target T2, Muscarinic acetylcholine receptor M2 (Homo sapiens) (UniProt P08172).
T2 sequence (whole entry): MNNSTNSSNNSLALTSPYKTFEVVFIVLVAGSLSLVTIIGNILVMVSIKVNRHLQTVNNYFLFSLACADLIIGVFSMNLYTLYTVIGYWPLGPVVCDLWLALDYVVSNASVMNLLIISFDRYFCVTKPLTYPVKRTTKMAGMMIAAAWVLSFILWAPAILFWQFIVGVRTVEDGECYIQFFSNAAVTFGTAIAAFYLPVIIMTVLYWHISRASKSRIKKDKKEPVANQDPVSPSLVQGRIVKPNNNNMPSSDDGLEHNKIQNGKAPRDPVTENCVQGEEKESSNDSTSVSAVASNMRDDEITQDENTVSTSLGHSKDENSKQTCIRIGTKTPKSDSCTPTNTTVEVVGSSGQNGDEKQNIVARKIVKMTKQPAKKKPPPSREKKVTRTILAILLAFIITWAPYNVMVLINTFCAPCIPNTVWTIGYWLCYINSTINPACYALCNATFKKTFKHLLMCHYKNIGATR
Nature of the assay: M2(H)ANTAG Eurofins SafetyScreen44 (BI). Conditions: filed as antagonist, Compound concentration 10.0 uM.

For assay [5], the target named is Cannabinoid receptor 1 (Homo sapiens) (UniProt P21554). Nature of the assay: CB1/CENTR/H Eurofins SafetyScreen44 (BI). Conditions: Compound concentration 10.0 uM.
For assay [6], the target named is T3, 5-hydroxytryptamine receptor 1A (Homo sapiens) (UniProt P08908).
T3 sequence (whole entry): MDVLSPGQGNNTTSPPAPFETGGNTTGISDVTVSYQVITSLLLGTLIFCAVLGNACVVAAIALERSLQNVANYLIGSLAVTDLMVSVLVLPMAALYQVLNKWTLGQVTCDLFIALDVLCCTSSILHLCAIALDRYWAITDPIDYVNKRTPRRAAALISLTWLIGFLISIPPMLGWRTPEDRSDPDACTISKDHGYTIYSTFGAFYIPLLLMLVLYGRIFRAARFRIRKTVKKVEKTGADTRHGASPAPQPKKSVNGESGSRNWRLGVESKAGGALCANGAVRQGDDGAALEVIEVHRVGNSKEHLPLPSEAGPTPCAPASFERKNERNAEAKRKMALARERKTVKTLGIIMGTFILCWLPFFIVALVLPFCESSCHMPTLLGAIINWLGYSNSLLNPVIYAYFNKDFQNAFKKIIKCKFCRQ
Particulars: Compound concentration 10.0 uM.

Assay [7] addresses 5-hydroxytryptamine receptor 1B (Homo sapiens) (UniProt P28222). Particulars: Compound concentration 10.0 uM.
Assay [8] has as its target T4, 5-hydroxytryptamine receptor 3A (Homo sapiens) (UniProt P46098).
T4 sequence (whole entry): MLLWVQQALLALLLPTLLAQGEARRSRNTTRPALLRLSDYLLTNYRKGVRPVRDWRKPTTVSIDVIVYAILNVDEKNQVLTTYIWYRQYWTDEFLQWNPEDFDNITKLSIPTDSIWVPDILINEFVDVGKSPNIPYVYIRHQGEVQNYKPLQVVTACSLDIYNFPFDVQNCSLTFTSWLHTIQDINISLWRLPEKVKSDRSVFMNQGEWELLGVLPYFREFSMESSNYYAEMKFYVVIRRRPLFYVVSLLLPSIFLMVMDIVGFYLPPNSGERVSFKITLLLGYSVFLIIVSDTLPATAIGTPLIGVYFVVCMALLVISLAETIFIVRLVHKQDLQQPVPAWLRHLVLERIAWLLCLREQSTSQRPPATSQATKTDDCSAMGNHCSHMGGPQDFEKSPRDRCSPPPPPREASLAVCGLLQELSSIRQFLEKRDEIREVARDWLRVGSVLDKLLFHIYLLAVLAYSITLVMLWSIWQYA
Particulars: Compound concentration 10.0 uM.

Assay [9] deals with 5-hydroxytryptamine receptor 5A (Homo sapiens) (UniProt P47898). Particulars: Compound concentration 10.0 uM.
Sequence of 5-hydroxytryptamine receptor 5A (Homo sapiens) (P47898 whole entry): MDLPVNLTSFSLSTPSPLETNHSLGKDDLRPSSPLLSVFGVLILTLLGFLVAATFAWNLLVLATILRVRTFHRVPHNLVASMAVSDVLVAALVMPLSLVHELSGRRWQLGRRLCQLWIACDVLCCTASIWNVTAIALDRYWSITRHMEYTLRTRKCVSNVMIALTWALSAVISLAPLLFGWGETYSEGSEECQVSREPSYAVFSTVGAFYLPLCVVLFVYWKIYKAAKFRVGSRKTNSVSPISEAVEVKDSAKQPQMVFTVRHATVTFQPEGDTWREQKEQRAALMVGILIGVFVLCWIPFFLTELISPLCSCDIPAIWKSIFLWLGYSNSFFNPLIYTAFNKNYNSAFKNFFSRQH
Assay [10] addresses D(4) dopamine receptor (Homo sapiens) (UniProt P21917). Particulars: Compound concentration 10.0 uM.
In assay [11] the target is Sodium-dependent dopamine transporter (Homo sapiens) (UniProt Q01959). Conditions: Compound concentration 10.0 uM.
Sequence of Sodium-dependent dopamine transporter (Homo sapiens) (Q01959 whole entry): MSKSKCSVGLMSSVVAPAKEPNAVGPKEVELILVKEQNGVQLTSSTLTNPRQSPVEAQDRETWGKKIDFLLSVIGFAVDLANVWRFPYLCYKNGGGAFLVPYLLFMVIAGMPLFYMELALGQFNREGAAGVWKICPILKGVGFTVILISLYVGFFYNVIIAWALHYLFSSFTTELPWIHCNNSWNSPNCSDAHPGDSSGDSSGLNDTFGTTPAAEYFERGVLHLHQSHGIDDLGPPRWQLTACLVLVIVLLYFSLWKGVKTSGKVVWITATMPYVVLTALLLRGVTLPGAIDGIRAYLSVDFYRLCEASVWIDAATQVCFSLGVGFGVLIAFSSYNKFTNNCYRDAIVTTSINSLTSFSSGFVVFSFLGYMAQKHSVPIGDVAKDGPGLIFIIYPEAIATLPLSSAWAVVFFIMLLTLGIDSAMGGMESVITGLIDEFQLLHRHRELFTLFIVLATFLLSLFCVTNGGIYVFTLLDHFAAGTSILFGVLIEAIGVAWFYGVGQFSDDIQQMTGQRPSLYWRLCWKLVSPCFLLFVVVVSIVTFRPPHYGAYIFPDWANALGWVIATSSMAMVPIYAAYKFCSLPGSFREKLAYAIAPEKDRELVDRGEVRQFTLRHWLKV
In assay [12] the target is Histamine H2 receptor (Homo sapiens) (UniProt P25021). Conditions: Compound concentration 10.0 uM.
Sequence of Histamine H2 receptor (Homo sapiens) (P25021 whole entry): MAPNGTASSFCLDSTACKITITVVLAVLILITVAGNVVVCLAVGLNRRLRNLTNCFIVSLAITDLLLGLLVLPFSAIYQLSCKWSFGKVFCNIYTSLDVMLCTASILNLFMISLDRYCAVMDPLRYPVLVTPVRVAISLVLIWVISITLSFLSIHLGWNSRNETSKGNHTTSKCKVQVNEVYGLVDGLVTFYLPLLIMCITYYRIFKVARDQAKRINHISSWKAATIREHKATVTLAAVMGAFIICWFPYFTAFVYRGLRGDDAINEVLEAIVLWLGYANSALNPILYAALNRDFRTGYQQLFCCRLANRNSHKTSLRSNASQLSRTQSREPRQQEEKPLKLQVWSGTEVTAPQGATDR
For assay [13], the target named is Histamine H4 receptor (Homo sapiens) (UniProt Q9H3N8). Particulars: Compound concentration 10.0 uM.
Sequence of Histamine H4 receptor (Homo sapiens) (Q9H3N8 whole entry): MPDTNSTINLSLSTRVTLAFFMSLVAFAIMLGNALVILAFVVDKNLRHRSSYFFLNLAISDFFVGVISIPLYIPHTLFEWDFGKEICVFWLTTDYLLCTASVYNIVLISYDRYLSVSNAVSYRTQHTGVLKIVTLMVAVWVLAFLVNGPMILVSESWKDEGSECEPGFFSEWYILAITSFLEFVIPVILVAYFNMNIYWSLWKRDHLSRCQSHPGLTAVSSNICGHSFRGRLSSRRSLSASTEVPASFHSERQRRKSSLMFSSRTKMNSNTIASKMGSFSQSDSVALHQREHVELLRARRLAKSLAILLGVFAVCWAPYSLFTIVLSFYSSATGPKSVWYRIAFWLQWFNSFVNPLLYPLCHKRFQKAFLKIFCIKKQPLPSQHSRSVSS
Assay [14] has as its target Alpha-1B adrenergic receptor (Homo sapiens) (UniProt P35368). Particulars: Compound concentration 10.0 uM.
The target in assay [15] is Alpha-2C adrenergic receptor (Homo sapiens) (UniProt P18825). Conditions: Compound concentration 10.0 uM.
Sequence of Alpha-2C adrenergic receptor (Homo sapiens) (P18825 whole entry): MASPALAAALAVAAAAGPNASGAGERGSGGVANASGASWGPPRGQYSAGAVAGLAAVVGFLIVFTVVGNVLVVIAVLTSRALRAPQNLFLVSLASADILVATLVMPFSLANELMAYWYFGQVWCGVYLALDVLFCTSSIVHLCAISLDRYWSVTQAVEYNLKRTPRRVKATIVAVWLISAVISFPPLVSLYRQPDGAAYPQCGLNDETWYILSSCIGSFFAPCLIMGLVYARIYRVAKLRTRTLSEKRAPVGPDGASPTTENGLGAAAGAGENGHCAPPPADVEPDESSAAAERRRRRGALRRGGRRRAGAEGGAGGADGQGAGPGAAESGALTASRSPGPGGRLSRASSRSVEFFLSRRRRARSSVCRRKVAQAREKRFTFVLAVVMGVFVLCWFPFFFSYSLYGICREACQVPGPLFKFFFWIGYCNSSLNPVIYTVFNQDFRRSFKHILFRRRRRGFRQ
In assay [16] the target is T2, Muscarinic acetylcholine receptor M2 (Homo sapiens). Particulars: Compound concentration 10.0 uM.
For assay [17], the target named is Muscarinic acetylcholine receptor M4 (Homo sapiens) (UniProt P08173). Particulars: Compound concentration 10.0 uM.
Sequence of Muscarinic acetylcholine receptor M4 (Homo sapiens) (P08173 whole entry): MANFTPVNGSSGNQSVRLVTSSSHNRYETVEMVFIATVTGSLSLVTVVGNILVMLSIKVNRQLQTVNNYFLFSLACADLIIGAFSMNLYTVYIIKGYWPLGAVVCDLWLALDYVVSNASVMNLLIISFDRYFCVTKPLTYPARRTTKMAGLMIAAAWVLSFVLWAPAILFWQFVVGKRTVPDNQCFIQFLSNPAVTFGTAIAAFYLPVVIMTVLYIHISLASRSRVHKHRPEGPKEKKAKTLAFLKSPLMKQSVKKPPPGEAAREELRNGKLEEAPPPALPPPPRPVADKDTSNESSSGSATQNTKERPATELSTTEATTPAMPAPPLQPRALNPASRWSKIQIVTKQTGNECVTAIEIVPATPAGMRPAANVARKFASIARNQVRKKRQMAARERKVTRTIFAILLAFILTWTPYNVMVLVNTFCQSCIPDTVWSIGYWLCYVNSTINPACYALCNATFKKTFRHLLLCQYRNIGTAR
The target of assay [18] is Muscarinic acetylcholine receptor M5 (Homo sapiens) (UniProt P08912). Conditions: Compound concentration 10.0 uM.
Sequence of Muscarinic acetylcholine receptor M5 (Homo sapiens) (P08912 whole entry): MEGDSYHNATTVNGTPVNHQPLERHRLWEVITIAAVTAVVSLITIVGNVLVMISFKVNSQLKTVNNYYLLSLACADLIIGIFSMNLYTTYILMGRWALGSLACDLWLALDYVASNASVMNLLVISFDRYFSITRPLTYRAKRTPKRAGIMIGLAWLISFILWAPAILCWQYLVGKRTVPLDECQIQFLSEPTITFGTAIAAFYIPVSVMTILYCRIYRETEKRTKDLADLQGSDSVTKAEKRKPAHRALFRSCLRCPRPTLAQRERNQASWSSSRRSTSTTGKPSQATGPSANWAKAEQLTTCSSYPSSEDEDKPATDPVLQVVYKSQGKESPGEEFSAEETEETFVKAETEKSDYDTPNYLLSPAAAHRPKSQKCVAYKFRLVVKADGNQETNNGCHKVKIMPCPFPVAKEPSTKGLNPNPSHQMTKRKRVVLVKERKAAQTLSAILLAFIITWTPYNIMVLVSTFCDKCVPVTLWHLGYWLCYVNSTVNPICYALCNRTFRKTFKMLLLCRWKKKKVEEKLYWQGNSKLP
Assay [19] has as its target Sigma intracellular receptor 2 (Homo sapiens) (UniProt Q5BJF2). Conditions: Compound concentration 10.0 uM.

Structures are written as SMILES.

Sequence of D(4) dopamine receptor (Homo sapiens) (P21917 whole entry): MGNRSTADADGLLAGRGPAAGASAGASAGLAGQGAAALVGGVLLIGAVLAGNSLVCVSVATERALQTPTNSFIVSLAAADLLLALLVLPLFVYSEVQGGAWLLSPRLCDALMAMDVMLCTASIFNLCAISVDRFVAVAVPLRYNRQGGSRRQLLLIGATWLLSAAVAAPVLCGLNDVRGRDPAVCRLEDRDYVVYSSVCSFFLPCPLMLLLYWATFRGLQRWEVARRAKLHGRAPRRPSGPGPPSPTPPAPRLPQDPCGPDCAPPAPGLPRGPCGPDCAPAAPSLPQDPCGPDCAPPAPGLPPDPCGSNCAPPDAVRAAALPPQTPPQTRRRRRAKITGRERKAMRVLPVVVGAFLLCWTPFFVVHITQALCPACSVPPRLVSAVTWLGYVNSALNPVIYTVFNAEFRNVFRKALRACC
Sequence of 5-hydroxytryptamine receptor 1B (Homo sapiens) (P28222 whole entry): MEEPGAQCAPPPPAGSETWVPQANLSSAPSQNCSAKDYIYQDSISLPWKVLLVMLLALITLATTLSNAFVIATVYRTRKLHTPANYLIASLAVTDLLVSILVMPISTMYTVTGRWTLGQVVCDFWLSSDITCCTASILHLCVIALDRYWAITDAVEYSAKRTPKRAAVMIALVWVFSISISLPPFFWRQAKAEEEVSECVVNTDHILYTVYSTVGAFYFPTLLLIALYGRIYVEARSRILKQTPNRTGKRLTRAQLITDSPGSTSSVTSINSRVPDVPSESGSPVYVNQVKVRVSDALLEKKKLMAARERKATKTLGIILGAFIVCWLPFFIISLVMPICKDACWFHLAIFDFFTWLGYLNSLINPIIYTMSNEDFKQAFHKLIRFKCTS
Sequence of Sigma intracellular receptor 2 (Homo sapiens) (Q5BJF2 whole entry): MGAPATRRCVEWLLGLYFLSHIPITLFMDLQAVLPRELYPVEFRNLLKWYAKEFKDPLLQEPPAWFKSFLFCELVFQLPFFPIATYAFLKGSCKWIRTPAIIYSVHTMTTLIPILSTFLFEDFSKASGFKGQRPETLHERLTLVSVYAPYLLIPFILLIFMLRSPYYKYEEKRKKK
Sequence of Alpha-1B adrenergic receptor (Homo sapiens) (P35368 whole entry): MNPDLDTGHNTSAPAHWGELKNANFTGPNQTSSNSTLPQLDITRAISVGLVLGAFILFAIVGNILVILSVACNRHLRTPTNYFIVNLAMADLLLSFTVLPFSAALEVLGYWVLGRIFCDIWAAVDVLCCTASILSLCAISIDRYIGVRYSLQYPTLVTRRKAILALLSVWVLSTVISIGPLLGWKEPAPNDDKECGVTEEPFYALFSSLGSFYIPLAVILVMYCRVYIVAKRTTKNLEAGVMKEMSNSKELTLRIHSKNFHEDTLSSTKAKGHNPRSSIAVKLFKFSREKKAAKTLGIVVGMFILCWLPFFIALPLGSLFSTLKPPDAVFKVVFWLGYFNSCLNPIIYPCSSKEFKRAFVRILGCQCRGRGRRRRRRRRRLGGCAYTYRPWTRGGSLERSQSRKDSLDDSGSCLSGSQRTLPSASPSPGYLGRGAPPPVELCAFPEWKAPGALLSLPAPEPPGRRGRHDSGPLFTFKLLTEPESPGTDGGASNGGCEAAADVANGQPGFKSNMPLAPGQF

`CCn1c(CNC(=O)c2ncc(C)nc2N)[n+](CC)c2ccc(C(=O)N(C)CN(C)C)cc21`: the residual activity in assay [1] is 84%.
As to `CCn1c(CNC(=O)c2nc(Cl)cnc2N)[n+](CC)c2ccc(C(=O)N(C)CCN(C)C)cc21`, the inhibition (as a rule, the drop in the measured response relative to a control, in per cent) in [2] was 81%; in assay [6], -4.21%; in [7], 8.35%; in assay [8] it was 8.37%; in assay [9], -6.08%; in assay [10] it was 7.07%. Moreover, the inhibition is 12.4% in [11]; 27.9% in [12]; -7.37% in assay [13]; 44.9% in assay [14]; 0.47% in assay [15]; 44.6% in assay [16]. Further, the inhibition in assay [17] is 7.09%; in assay [18] it was 18.7%; in assay [19] it was -0.91%. Further, the residual activity in assay [3] was 89%; in assay [4], 91%; in [5], 99%.
